The EC50 is the concentration at which the effect is half-maximal.

20 compounds from US12692262B2, “Substituted ureas as orexin receptor agonists” (Merck Sharp & Dohme LLC, priority 2020, dated 2026) can be followed below.

The assay has as its target T1, human OX2R (Homo sapiens, UniProt O43614).
T1 construct: expressed in transfected cells; host or cells: CHO (Chinese hamster ovary) cells grown under G418 selection
T1 sequence (O43614 1-444): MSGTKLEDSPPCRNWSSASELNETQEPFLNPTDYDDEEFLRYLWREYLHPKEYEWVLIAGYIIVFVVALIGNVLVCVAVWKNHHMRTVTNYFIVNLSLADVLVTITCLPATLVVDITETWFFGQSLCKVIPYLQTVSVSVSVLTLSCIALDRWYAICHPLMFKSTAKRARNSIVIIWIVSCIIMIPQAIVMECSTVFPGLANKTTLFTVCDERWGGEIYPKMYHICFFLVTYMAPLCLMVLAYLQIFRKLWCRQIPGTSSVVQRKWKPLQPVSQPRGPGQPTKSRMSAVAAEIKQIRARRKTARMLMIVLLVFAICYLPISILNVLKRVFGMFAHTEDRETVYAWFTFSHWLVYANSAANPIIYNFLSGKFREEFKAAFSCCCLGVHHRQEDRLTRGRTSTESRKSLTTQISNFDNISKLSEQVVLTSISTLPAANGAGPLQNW
As to the kind of experiment: IPOne (IP-1 accumulation) assay in CHO cells expressing human OX2R. It is filed as cell-based. Particulars: for EC50: CHO cells expressing human OX2R, IP-One assay, 2 h incubation, four parameter logistic fit, read-out: OX2R Potency, EC50; for % of maximum agonist effect (relative to Orexin A): percent effect vs mean max effect of a reference compound at 1 uM (100% activity vs Orexin A), human OX2R. A digest of the protocol:
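Agonist EC50 values come from the inflection point of four-parameter logistic curves. Read-out is IP-1 accumulation detected with lysis buffer plus D2 and AB-cryptate reagents (HTRF), in CHO cells engineered to express human OX2R.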

On to `CCN(C(=O)N[C@H]1C[C@@]1(C)C(F)(F)F)[C@@H](c1cc(-c2cn3ccnc3c(OC)n2)c(OC)cn1)C(F)(F)F` [Example 2-39, 1-ethyl-3-((1S,2R)-2-methyl-2-(trifluoromethyl)cyclopropyl)-1-((S)-2,2,2-trifluoro-1-(5-methoxy-4-(8-methoxyimidazo[1,2-a]pyrazin-6-yl)pyridin-2-yl)ethyl)urea], for which the EC50 was determined as 5.8 nM and the “% of maximum agonist effect (relative to Orexin A)” value stood at 99.3%.

Regarding `CCN(C(=O)NC(C)C(C)(F)F)[C@@H](c1cc(-c2cn3ccnc3c(OC)n2)c(OC)cn1)C(F)(F)F` (stereo partly drawn) [Example 2-40, 3-(3,3-difluorobutan-2-yl)-1-ethyl-1-((S)-2,2,2-trifluoro-1-(5-methoxy-4-(8-methoxyimidazo[1,2-a]pyrazin-6-yl)pyridin-2-yl)ethyl)urea], the EC50 came to 15.8 nM and the “% of maximum agonist effect (relative to Orexin A)” value was determined as 99.3%.

Take `CCN(C(=O)NC(C)C(F)F)[C@@H](c1cc(-c2cn3ccnc3c(OC)n2)c(OC)cn1)C(F)(F)F` (stereo partly drawn) [Example 2-41, 3-(1,1-difluoropropan-2-yl)-1-ethyl-1-((S)-2,2,2-trifluoro-1-(5-methoxy-4-(8-methoxyimidazo[1,2-a]pyrazin-6-yl)pyridin-2-yl)ethyl)urea]: the EC50 was determined as 16.3 nM and the “% of maximum agonist effect (relative to Orexin A)” value is 101.2%.

Consider `CCN(C(=O)NC1CC1(F)F)[C@@H](c1cc(-c2cn3ccnc3c(OC)n2)c(OC)cn1)C(F)(F)F` (stereo partly drawn) [Example 2-42, 3-(2,2-difluorocyclopropyl)-1-ethyl-1-((S)-2,2,2-trifluoro-1-(5-methoxy-4-(8-methoxyimidazo[1,2-a]pyrazin-6-yl)pyridin-2-yl)ethyl)urea], for which the EC50 is 27.8 nM and the “% of maximum agonist effect (relative to Orexin A)” value came to 101.7%.

Regarding `CCN(C(=O)NC(CN1CCOC1=O)C(F)(F)F)[C@@H](c1cc(-c2cn3ccnc3c(OC)n2)c(OC)cn1)C(F)(F)F` (stereo partly drawn) [Example 2-43, 1-ethyl-1-((S)-2,2,2-trifluoro-1-(5-methoxy-4-(8-methoxyimidazo[1,2-a]pyrazin-6-yl)pyridin-2-yl)ethyl)-3-(1,1,1-trifluoro-3-(2-oxooxazolidin-3-yl)propan-2-yl)urea], the EC50 was determined as 1.1 nM and the “% of maximum agonist effect (relative to Orexin A)” value is 99.8%.

Consider `CCN(C(=O)N[C@@H](CC(OC)C(F)(F)F)C(F)(F)F)[C@@H](c1cc(-c2cn3cc(C)nc3c(OC)n2)c(OC)cn1)C(F)(F)F` (stereo partly drawn) [Example 2-44, 1-ethyl-3-((2S)-1,1,1,5,5,5-hexafluoro-4-methoxypentan-2-yl)-1-((S)-2,2,2-trifluoro-1-(5-methoxy-4-(8-methoxy-2-methylimidazo[1,2-a]pyrazin-6-yl)pyridin-2-yl)ethyl)urea], for which the EC50 amounted to 4.8 nM and the “% of maximum agonist effect (relative to Orexin A)” value came out at 100.6%.

As to `CCN(C(=O)NC(CCC(F)(F)F)C1CCO1)[C@@H](c1cc(-c2cn3ccnc3c(OC)n2)c(OC)cn1)C(F)(F)F` (stereo partly drawn) [Example 2-45, 1-ethyl-1-((S)-2,2,2-trifluoro-1-(5-methoxy-4-(8-methoxyimidazo[1,2-a]pyrazin-6-yl)pyridin-2-yl)ethyl)-3-(4,4,4-trifluoro-1-(oxetan-2-yl)butyl)urea], the EC50 was found to be 1.9 nM and the “% of maximum agonist effect (relative to Orexin A)” value was determined as 99.8%.

For the compound `CCN(C(=O)NC(CC1CCCO1)C(F)(F)F)[C@@H](c1cc(-c2cn3cc(C)nc3c(OC)n2)c(OC)cn1)C(F)(F)F` (stereo partly drawn) [Example 2-46, 1-ethyl-1-((S)-2,2,2-trifluoro-1-(5-methoxy-4-(8-methoxy-2-methylimidazo[1,2-a]pyrazin-6-yl)pyridin-2-yl)ethyl)-3-(1,1,1-trifluoro-3-(tetrahydrofuran-2-yl)propan-2-yl)urea], the EC50 was determined as 11.7 nM and the “% of maximum agonist effect (relative to Orexin A)” value was found to be 100.9%.

For `CCN(C(=O)NC(C1CCCOC1)C(F)(F)F)[C@@H](c1cc(-c2cn3cc(C)nc3c(OC)n2)c(OC)cn1)C(F)(F)F` (stereo partly drawn) [Example 2-47, 1-ethyl-1-((S)-2,2,2-trifluoro-1-(5-methoxy-4-(8-methoxy-2-methylimidazo[1,2-a]pyrazin-6-yl)pyridin-2-yl)ethyl)-3-(2,2,2-trifluoro-1-(tetrahydro-2H-pyran-3-yl)ethyl)urea], the EC50 turned out to be 16.7 nM and the “% of maximum agonist effect (relative to Orexin A)” value was found to be 100.7%.

Take `CCN(C(=O)NC(C1CCOCC1)C(F)(F)F)[C@@H](c1cc(-c2cn3cc(C)nc3c(OC)n2)c(OC)cn1)C(F)(F)F` (stereo partly drawn) [Example 2-48, 1-ethyl-1-((S)-2,2,2-trifluoro-1-(5-methoxy-4-(8-methoxy-2-methylimidazo[1,2-a]pyrazin-6-yl)pyridin-2-yl)ethyl)-3-(2,2,2-trifluoro-1-(tetrahydro-2H-pyran-4-yl)ethyl)urea]: the EC50 was 17.6 nM and the “% of maximum agonist effect (relative to Orexin A)” value was 101.0%.

For `CCN(C(=O)NC(CCC(F)(F)F)COC)[C@@H](c1cc(-c2cn3cc(C)nc3c(OC)n2)c(OC)cn1)C(F)(F)F` (stereo partly drawn) [Example 2-49, 1-ethyl-1-((S)-2,2,2-trifluoro-1-(5-methoxy-4-(8-methoxy-2-methylimidazo[1,2-a]pyrazin-6-yl)pyridin-2-yl)ethyl)-3-(5,5,5-trifluoro-1-methoxypentan-2-yl)urea], the EC50 came to 99.4 nM and the “% of maximum agonist effect (relative to Orexin A)” value is given as 100.1%.

Take `CCN(C(=O)N[C@@H](CCC(F)(F)F)C(F)(F)F)C(c1cnc(OC)c(-c2cn3ccnc3c(OC)n2)c1)C(F)(F)F` (stereo partly drawn) [Example 2-50, 1-ethyl-3-((S)-1,1,1,5,5,5-hexafluoropentan-2-yl)-1-(2,2,2-trifluoro-1-(6-methoxy-5-(8-methoxyimidazo[1,2-a]pyrazin-6-yl)pyridin-3-yl)ethyl)urea]: the EC50 was 1.4 nM and the “% of maximum agonist effect (relative to Orexin A)” value is 100.5%.

With `CCN(C(=O)N[C@@H](CCC(F)(F)F)C(F)(F)F)[C@H](C)c1cc(-c2cc3ccnn3c(OC)n2)c(OC)cn1` [Example 2-51, 1-ethyl-3-((S)-1,1,1,5,5,5-hexafluoropentan-2-yl)-1-((R)-1-(5-methoxy-4-(7-methoxypyrazolo[1,5-c]pyrimidin-5-yl)pyridin-2-yl)ethyl)urea], the EC50 amounted to 1 nM and the “% of maximum agonist effect (relative to Orexin A)” value was 98.7%.

As for `CCN(C(=O)NC(CC(F)F)C(F)(F)F)[C@H](C)c1cccc(-c2cn3ccnc3c(OC)n2)c1` (stereo partly drawn) [Example 2-52, 1-ethyl-1-((R)-1-(3-(8-methoxyimidazo[1,2-a]pyrazin-6-yl)phenyl)ethyl)-3-(1,1,1,4,4-pentafluorobutan-2-yl)urea], the EC50 was found to be 35.8 nM and the “% of maximum agonist effect (relative to Orexin A)” value is on record as 100.6%.

Regarding `CCN(C(=O)NC(C1CC(F)(F)CCN1C)C(F)(F)F)[C@H](C)c1cccc(-c2cc(OC)n3nccc3c2)c1` (stereo partly drawn) [Example 2-53, 3-(1-(4,4-difluoro-1-methylpiperidin-2-yl)-2,2,2-trifluoroethyl)-1-ethyl-1-((R)-1-(3-(7-methoxypyrazolo[1,5-a]pyridin-5-yl)phenyl)ethyl)urea], the EC50 amounted to 1.5 nM and the “% of maximum agonist effect (relative to Orexin A)” value is given as 101.6%.

Turning to `CCN(C(=O)NC(CCC(C)=O)C(F)(F)F)[C@H](C)c1cccc(-c2cn3ccnc3c(OC)n2)c1` (stereo partly drawn) [Example 2-54, 1-ethyl-1-((R)-1-(3-(8-methoxyimidazo[1,2-a]pyrazin-6-yl)phenyl)ethyl)-3-(1,1,1-trifluoro-5-oxohexan-2-yl)urea], the EC50 is 1.6 nM and the “% of maximum agonist effect (relative to Orexin A)” value was determined as 99.4%.

Regarding `CCN(C(=O)NC(CCC(F)(F)F)C(C)(F)F)[C@H](C)c1cccc(-c2cn3ccnc3c(OC)n2)c1` (stereo partly drawn) [Example 2-55, 1-ethyl-1-((R)-1-(3-(8-methoxyimidazo[1,2-a]pyrazin-6-yl)phenyl)ethyl)-3-(2,2,6,6,6-pentafluorohexan-3-yl)urea], the EC50 stood at 129 nM and the “% of maximum agonist effect (relative to Orexin A)” value was determined as 99.4%.

As for `CCOC1(CC(NC(=O)N(CC)[C@H](C)c2cccc(-c3cn4ccnc4c(OC)n3)c2)C(F)(F)F)CC1` (stereo partly drawn) [Example 2-57, 3-(3-(1-ethoxycyclopropyl)-1,1,1-trifluoropropan-2-yl)-1-ethyl-1-((R)-1-(3-(8-methoxyimidazo[1,2-a]pyrazin-6-yl)phenyl)ethyl)urea], the EC50 is 15.3 nM and the “% of maximum agonist effect (relative to Orexin A)” value is 96.2%.

For `CC[C@H](CCC(F)(F)F)NC(=O)N(C)[C@H](C)c1cccc(-c2cn3ccnc3c(OC)n2)c1` [Example 2-58, 1-((R)-1-(3-(8-methoxyimidazo[1,2-a]pyrazin-6-yl)phenyl)ethyl)-1-methyl-3-((R)-6,6,6-trifluorohexan-3-yl)urea], the concentration for a half-maximal effect (EC50) is 17.8 nM and the “% of maximum agonist effect (relative to Orexin A)” value is listed as 100.0%.

For `CCCN(C(=O)N[C@H](CC)CCC(F)(F)F)[C@H](C)c1cccc(-c2cn3ccnc3c(OC)n2)c1` [Example 2-59, 1-((R)-1-(3-(8-methoxyimidazo[1,2-a]pyrazin-6-yl)phenyl)ethyl)-1-propyl-3-((R)-6,6,6-trifluorohexan-3-yl)urea], the EC50 stood at 20.9 nM and the “% of maximum agonist effect (relative to Orexin A)” value was 100.2%.
